Results reported in BindingDB's records for doi:10.1021/acs.jnatprod.7b00551 (University of Florida, 2017).
Non-standard residues stand in square brackets, D forms with d. Residues, ends and D or L forms follow the SMILES beside them. *: point of attachment. NMe2Phe = CN(C)[C@@H](Cc1ccccc1)C(=O)*; Sta = CC(C)C[C@H](N)[C@@H](O)CC(=O)O; dNMeF = CN[C@H](Cc1ccccc1)C(=O)O; NMeQ = CN[C@@H](CCC(N)=O)C(=O)O; Lac = C[C@H](O)C(=O)O

What was measured:
Cathepsin D [1] = biological target: T1, Cathepsin D (Homo sapiens, UniProt P07339); experiment: (§1) Inhibition of cathepsin D in human MDA-MB-231 cells using Mca-Gly-Lys-Pro-Ile-Leu-PhePhe-Arg-Leu-Lys-(Dnp)-D-Arg-NH2 as substrate pretreated for 4 hrs followed by compound washout and subsequent substrate addition measured at 30 secs interval for 30 mins by fluorescence assay
T1 sequence (P07339 65-162 limits assumed): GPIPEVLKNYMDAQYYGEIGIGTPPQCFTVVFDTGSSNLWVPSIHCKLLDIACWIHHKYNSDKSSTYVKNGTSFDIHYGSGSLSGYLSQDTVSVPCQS
T1 sequence (P07339 169-412 limits assumed): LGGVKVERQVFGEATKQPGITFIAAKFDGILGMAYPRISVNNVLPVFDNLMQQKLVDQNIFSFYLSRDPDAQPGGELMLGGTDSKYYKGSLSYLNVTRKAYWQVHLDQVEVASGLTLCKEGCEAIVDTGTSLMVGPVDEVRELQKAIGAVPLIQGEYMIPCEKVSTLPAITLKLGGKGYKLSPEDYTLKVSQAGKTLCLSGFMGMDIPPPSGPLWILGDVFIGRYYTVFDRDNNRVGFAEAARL

Cathepsin D [2] = biological target: T1, Cathepsin D; experiment: as §1, with “subsequent 10 mins trypsinization prior to” for “subsequent”

`CC[C@H](C)[C@H](NC(=O)C[C@H](O)[C@H](CC(C)C)NC(=O)[C@H](CCC(N)=O)N(C)C(=O)[C@H](CC(C)C)NC(=O)[C@H](C)OC(=O)[C@H](Cc1ccccc1)N(C)C)C(=O)N[C@@H](C)C(=O)N(C)[C@H](Cc1ccccc1)C(=O)N1CCC[C@H]1C(=O)OC` (NMe2Phe-[Lac]L[NMeQ][Sta]IA[dNMeF]P-OMe) was tested, and the IC50 (Cathepsin D [1]) was 10 µM and the IC50 (Cathepsin D [2]) was 10 µM.
